Source: patent US20170216252A1, “ANTI-BACTERIAL PYRUVATE KINASE MODULATOR COMPOUNDS, COMPOSITIONS, USES AND METHODS” (SIMON FRASER UNIVERSITY, priority 2014, published 2017)
≈ marks a conversion by molar mass, not a printed value. Like-named read-outs stand apart in the source and are kept apart here.

What was measured:
Human M1 PK = biological target: T1, Human M1 PK (Homo sapiens, UniProt P14618); assay: Human PK selectivity, LDH-coupled enzyme assay; type: biochemical; details: read-out: % Inhibition Human M1
T1 construct: His tag; made in house; host or cells: E. coli BL-21 (DE3); construct a gift of Dr. L. Cantley
T1 sequence (P14618 1-531 isoform P14618-2): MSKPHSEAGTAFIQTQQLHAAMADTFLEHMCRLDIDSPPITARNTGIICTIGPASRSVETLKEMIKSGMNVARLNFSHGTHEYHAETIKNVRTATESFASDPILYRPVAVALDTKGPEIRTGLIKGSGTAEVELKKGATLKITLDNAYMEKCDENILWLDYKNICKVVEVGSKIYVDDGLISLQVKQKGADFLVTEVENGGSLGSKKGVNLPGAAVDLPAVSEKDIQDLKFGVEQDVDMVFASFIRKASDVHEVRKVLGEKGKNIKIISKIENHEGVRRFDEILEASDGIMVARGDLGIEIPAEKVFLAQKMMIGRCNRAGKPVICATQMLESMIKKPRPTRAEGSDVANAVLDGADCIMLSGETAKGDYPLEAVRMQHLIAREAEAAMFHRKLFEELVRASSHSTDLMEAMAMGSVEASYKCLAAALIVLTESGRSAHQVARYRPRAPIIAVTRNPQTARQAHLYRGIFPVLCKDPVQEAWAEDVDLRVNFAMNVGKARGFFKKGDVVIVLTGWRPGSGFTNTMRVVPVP
Text: (§1) Genomic DNA of MRSA strain Sanger 252 extracted using DNeasy Tissue Kit™ (Qiagen™) was used as a template to generate the His-tagged MRSA PK. Human cDNA from MCF-7 breast cancer cell line (courtesy of Dr. J Wong, BC Cancer Research Center (Vancouver, Canada) was used as a template to generate the full-length human M2 PK enzyme. The following primer sets were used creating appropriate restriction sites (NdeI and XhoI sites underlined): For cloning of MRSA PK: M27F 5′-[…]-3′ and M27R 5′-[…]-3′, for cloning of human M2 PK isoform: hM2F 5′-[…]-3′ and hM2R 5′-[…]-3′. The resulting PCR fragments for each construct were cloned into the NdeI and XhoI unique sites of the bacterial expression vector pET-28a (+) (Novagen™). […] The sequence and the correct reading frame of all constructs were verified by sequencing. Human M1, R and L PK constructs in pET-28-a(+) vectors (courtesy of Dr. L. Cantley, Harvard Medical, School (Boston, USA)) were used to generate relevant recombinant His-tagged human PK isoforms.
(§2) MRSA and human constructs in pET-28a(+) were used to express relevant recombinant PK proteins in E. coli BL-21 (DE3). The proteins were expressed and purified using Ni-NTA agarose (Qiagen™) according to the manufacturer's protocol. Briefly, cells were grown to an absorbance of 0.4-0.5 at 600 nm in 2×YT medium, then induced with 0.1 mM IPTG for 3 h at 20° C. Cells were lysed by sonication on ice (3×10-s bursts with a 30-s recovery between bursts) in lysis buffer (0.2 mg/ml lysozyme, 50 mM Tris pH 7.5, 10 mM MgCl2, 200 mM NaCl, 100 mM KCl, 10% glycerol, 10 mM imidazole, 0.5% NP-40 and 1 mM DTT containing Complete™ protease inhibitor). Cell lysates were cleared by centrifugation (18,000×g in a Beckman™ JA-20 rotor) for 20 min at 4° C. and PK isoforms were purified by batch binding to Ni-NTA resin. The resins were then packed in columns (1×2 cm) and washed with 400 column volumes lysis buffer containing 30 mM imidazole. His-tagged PK isoforms were eluted with the same buffer containing 300 mM imidazole. The proteins were dialyzed overnight at 4° C. against 2000 volumes of ice-cold 30 mM Tris pH 7.5, 25 mM KCl, 5 mM MgCl2, 10% glycerol and 1 mM DTT to remove imidazole. All purification steps were done at 4° C.; enzymes were flash-frozen and stored at −70° C. Enzymatic activity of frozen protein preparations was stable for at least 10 months and up to 5 freeze/thaw cycles. Purity and physical integrity of proteins were assessed using SDS-polyacrylamide gel electrophoresis (SDS-PAGE) followed by coomassie blue staining. Protein concentration was estimated by Bradford assay (Bio-Rad Protein Assay™) using bovine serum albumin as a standard.
(§3) Candidate MRSA PK inhibitors were assayed for their ability to inhibit enzymatic activities of MRSA and human PKs. PK activity was determined using a continuous assay coupled to lactate dehydrogenase (LDH) in which the change in absorbance at 340 nm owing to oxidation of NADH was measured using a Benchmark Plus™ microplate spectrophotometer (Bio-Rad Laboratories, Hercules, Calif.). […] Reactions were initiated by the addition of 15 nM of one of the PK enzymes. PK activity proportional to the rate of change at 340 nm was expressed as specific activity (μmol/min/mg), which is defined as the amount of PK that catalyzes the formation of one micromole of either product per minute. Inhibitors were dissolved in DMSO with the final concentration of the solvent never exceeding 1% of the assay volume. IC50 values were calculated by curve fitting on a four-parameter dose-response model with variable slope using Graphpad Prism 5.0™ (GraphPad™ Software Inc., La Jolla, Calif.). In all studies, less than 10% of total PEP was exhausted during the reaction. Reactions were performed at 30° C. for up to 5 min. All values determined represent at least two measurements, in triplicate (Tables 1-6) or duplicate unless mentioned otherwise. […]

Human M2 PK = biological target: T2, Human M2 PK (Homo sapiens, UniProt P14618); assay: Human PK selectivity, LDH-coupled enzyme assay; type: biochemical; details: read-out: % Inhibition Human M2
T2 construct: used as a template to generate the full-length human M2 PK enzyme; His tag (pET-28a(+) vector) (N); made in house; host or cells: E. coli BL-21 (DE3)
T2 sequence (P14618 whole entry): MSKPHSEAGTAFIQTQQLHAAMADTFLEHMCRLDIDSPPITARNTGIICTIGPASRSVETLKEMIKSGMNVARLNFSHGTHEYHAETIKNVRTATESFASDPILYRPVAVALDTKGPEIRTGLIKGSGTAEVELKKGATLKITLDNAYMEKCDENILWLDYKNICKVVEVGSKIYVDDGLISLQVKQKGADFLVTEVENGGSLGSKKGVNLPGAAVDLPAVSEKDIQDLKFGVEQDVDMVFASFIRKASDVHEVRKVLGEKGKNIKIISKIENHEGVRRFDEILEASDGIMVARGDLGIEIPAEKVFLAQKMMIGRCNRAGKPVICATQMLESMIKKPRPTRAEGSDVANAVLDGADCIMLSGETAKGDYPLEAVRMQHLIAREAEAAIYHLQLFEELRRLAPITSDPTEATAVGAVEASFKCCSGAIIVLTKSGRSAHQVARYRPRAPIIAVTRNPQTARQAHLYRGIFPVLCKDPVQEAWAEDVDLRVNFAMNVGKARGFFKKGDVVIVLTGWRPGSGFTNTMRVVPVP
Text: as §1, §2, §3

Human L PK = biological target: T3, Human L PK (Homo sapiens, UniProt P30613); assay: Human PK selectivity, LDH-coupled enzyme assay; type: biochemical; details: read-out: % Inhibition Human L
T3 construct: His tag; made in house; host or cells: E. coli BL-21 (DE3); construct a gift of Dr. L. Cantley
T3 sequence (P30613 1-543 isoform P30613-2): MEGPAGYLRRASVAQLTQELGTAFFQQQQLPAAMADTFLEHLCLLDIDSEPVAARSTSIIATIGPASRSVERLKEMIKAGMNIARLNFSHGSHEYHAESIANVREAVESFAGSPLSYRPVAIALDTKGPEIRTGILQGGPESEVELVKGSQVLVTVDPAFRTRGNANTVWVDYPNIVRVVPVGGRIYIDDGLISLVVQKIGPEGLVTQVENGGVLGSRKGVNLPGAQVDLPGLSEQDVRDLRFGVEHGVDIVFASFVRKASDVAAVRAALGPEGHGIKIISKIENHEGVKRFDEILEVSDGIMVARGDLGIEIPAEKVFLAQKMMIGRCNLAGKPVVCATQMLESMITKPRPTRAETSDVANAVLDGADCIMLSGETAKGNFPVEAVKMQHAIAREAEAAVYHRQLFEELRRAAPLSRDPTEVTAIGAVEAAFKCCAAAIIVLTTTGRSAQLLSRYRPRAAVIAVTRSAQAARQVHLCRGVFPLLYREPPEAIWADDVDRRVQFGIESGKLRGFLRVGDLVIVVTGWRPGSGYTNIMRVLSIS
Text: as §1, §2, §3

Human R PK = biological target: T4, Human R PK (Homo sapiens, UniProt P30613); assay: Human PK selectivity, LDH-coupled enzyme assay; type: biochemical; details: read-out: % Inhibition Human R
T4 construct: His tag; made in house; host or cells: E. coli BL-21 (DE3); construct a gift of Dr. L. Cantley
T4 sequence (P30613 whole entry): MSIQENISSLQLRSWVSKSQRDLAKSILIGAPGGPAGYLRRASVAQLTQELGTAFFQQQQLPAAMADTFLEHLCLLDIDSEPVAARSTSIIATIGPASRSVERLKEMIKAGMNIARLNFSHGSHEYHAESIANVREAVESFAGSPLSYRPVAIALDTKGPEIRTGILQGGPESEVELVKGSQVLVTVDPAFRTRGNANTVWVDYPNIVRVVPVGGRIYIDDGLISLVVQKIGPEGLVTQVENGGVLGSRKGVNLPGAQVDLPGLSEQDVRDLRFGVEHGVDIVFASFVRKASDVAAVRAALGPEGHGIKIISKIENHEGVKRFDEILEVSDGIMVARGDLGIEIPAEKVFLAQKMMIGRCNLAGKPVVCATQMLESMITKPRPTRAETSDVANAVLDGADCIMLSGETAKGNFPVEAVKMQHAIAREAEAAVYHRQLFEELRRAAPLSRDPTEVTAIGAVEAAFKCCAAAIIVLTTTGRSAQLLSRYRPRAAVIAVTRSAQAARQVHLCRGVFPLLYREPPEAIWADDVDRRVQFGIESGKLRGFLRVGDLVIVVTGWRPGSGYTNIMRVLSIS
Text: as §1, §2, §3

S. aureus ATCC 29213 = assay: In vitro susceptibility, broth microdilution MIC; type: cell-based, Staphylococcus aureus; details: Staphylococcus aureus
Method in brief: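 The MIC against S. aureus 29213 was determined by CLSI 2-fold serial broth microdilution in Mueller Hinton broth. Plates were incubated for 18–24 h at 37 °C and read at OD600 with background subtracted. The MIC was the lowest concentration giving complete growth inhibition versus compound-free wells.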

[1] = ATCC29213, Tables 1-6 and text, minimum concentration to give >98% inhibition of growth, read-out: MIC

SMILES	inhibition at 10 µM (Human M1 PK; at 10 μM) [%]	inhibition at 10 µM (Human M2 PK; at 10 μM) [%]	inhibition at 10 µM (Human L PK; at 10 μM) [%]	inhibition at 10 µM (Human R PK; at 10 μM) [%]	MIC (S. aureus ATCC 29213; [1]) [µg/mL]	melting point [°C]	inhibition at 10 µM (Human M1 PK) [%]	inhibition at 10 µM (Human M2 PK) [%]	inhibition at 10 µM (Human L PK) [%]	inhibition at 10 µM (Human R PK) [%]	MIC (S. aureus ATCC 29213; ATCC29213) [µg/mL]	MIC (S. aureus ATCC 29213; ATCC29213, S. aureus (ATCC29213), Table 9, read-out: MIC (μg/mL) H) [µg/mL]
Brc1ccc2cc(-c3cc4ccc(Br)cc4[nH]3)[nH]c2c1 [Compound 10b, 6,6′-Dibromo-1H,1′H-2,2′-biindole]	10.3	0.1	7.9	18.3	16 (≈ 41 µM)	266 to 267	–	–	–	–	–	–
Brc1ccc2[nH]c(-c3cc4ccc(Br)cc4[nH]3)cc2c1 [Compound 10c, 5,6-Bibromo-1H,1′H-2,2′-biiindole]	6.9	8.7	6.1	13.6	0.3 (≈ 0.769 µM)	270 to 272	–	–	–	–	–	–
Brc1ccc2[nH]c(-c3cc4cc(Br)ccc4[nH]3)cc2c1 [Compound 10i, 5,5′-Bibromo-1H,1′H-2,2′-biindole]	12.3	0.5	9.8	24.4	> 64	304 to 306	–	–	–	–	–	–
Brc1ccc2cc(-c3cc4cc(Br)c(Br)cc4[nH]3)[nH]c2c1 [Compound 10k, 5,6,6′-Tribromo-1H,1′H-2,2′-biindole]	16.1	20.8	26.8	41	0.5 (≈ 1.07 µM)	–	–	–	–	–	–	–
Brc1cc2cc(-c3cc4cc(Br)c(Br)cc4[nH]3)[nH]c2cc1Br [Compound 10l, 5,5′,6,6′-Tetrabromo-1H,1′H-2,2′-biindole]	–	–	–	–	–	–	11.1	2.3	8.2	20.7	> 64	–
Cn1c(-c2cc3ccc(Br)cc3[nH]2)cc2cc(Br)ccc21 [Compound 12a, 5,6′-Dibromo-1-methyl-1H,1′H-2,2′-biindole]	13.9	9.1	2.8	2.7	> 64	180 to 182	–	–	–	–	–	–
OCCn1c(-c2cc3ccc(Br)cc3[nH]2)cc2cc(Br)ccc21 [Compound 17, 2-(5,6′-Dibromo-1H, 1′H-[2,2′-biindol]-1-yl)ethanol]	14.6	12.1	6.8	25.2	2 (≈ 4.61 µM)	–	–	–	–	–	–	–
CN1CCN(CCn2c(-c3cc4ccc(Br)cc4[nH]3)cc3cc(Br)ccc32)CC1 [Compound 20a, 5,6′-Dibromo-1-(2-(4-methylpiperazin-1-yl)ethyl)-1H,1′H-2,2′-biindole]	3.2	1.7	16.8	26.1	4 (≈ 7.75 µM)	140	–	–	–	–	–	–
Brc1ccc2c(c1)cc(-c1cc3ccc(Br)cc3[nH]1)n2CCN1CCOCC1 [Compound 20b, 4-(2-(5,6′-dibromo-1H,1′H-[2,2′-biindol]-1-yl)ethyl)morpholine]	13.1	3.5	32.1	50.7	> 64	–	–	–	–	–	–	–
Brc1ccc2cc(-c3nc4ccccc4s3)[nH]c2c1 [Compound 22a, 2-(6-Bromo-1H-indol-2-yl)benzo[d]thiazole]	12.4	3	7.8	21.6	> 64	–	–	–	–	–	–	–
Brc1ccc2cc(-c3cc4ccccc4o3)[nH]c2c1 [Compound 22b, 2-(Benzofuran-2-yl)-6-bromo-1H-indole]	5.3	0.4	-6	-5.5	> 64	196 to 198	–	–	–	–	–	–
Brc1ccc2[nH]c(C#Cc3cc4ccc(Br)cc4[nH]3)cc2c1 [Compound 25c, 6-Bromo-2-((5-bromo-1H-indol-2-yl)ethynyl)-1H-indole]	19.5	8.7	14	27.8	16 (≈ 38.6 µM)	236 to 237	–	–	–	–	–	–
Brc1ccc2cc(/C=C/c3cc4ccccc4[nH]3)[nH]c2c1 [Compound 27a, (E)-2-(2-(1H-indol-2-yl)vinyl)-6-bromo-1H-indole]	16.1	-0.9	12.9	23.8	> 64	–	–	–	–	–	–	–
Brc1ccc2cc(CCc3cc4ccc(Br)cc4[nH]3)[nH]c2c1 [Compound 28a, 1,2-bis(6-bromo-1H-indol-2-yl)ethane]	9.9	1.3	9.7	24.1	> 64	–	–	–	–	–	–	–
COc1cc(-c2cc3ccccc3[nH]2)ccc1-c1cc2ccc(Br)cc2[nH]1 [Compound 33e, 2-(4-(1H-indol-2-yl)-2-methoxyphenyl)-6-bromo-1H-indole]	7.3	14.6	4.3	13.5	> 64	–	–	–	–	–	–	–
O=C(c1c(-c2cc3cc(Cl)ccc3[nH]2)[nH]c2cc(Br)ccc12)C(F)(F)F [Compound 178, 1-(6-bromo-5′-chloro-1H,1′H-[2,2′-biindol]-3-yl)-2,2,2-trifluoroethan-1-one]	–	–	–	–	–	–	–	–	–	–	–	1 (≈ 2.26 µM)
